Converted amounts (≈) assume the structure as drawn. Read-outs that look alike come from different tables or passages of the source.
Assays:
Format in all cases: cell-based
S. uberis ATCC 19436 = experiment: MIC by broth microdilution, S. uberis; conditions: Streptococcus uberis, read-out: S. uberis ATCC 19436 MIC
Outline: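 Streptococcus uberis ATCC 19436 was tested in Todd Hewitt Broth by broth microdilution in 96-well flat bottom plates, in biological triplicate. Overnight cells were diluted to OD600 of approximately 0.025, giving about 5×10^5 cfu/mL in the wells. Compounds were serially diluted two-fold to 200 μl, incubated 24 h at 37° C. and 200 rpm, and the MIC was taken from OD600.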

S. aureus ATCC 6538 = experiment: MIC by broth microdilution, S. aureus; conditions: Staphylococcus aureus, read-out: S. aureus ATCC 6538 MIC
Outline: (§1)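 Two-fold serial dilutions were tested in broth at ~5×10^5 cfu/mL: S. aureus in TSB or CAMHB, E. coli in LB or CAMHB, with 50 μM zinc sulphate added as required. After 24 h at 37° C, 200 rpm, MIC was the lowest concentration showing no growth by OD600.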

E. coli ATCC 10596 = experiment: MIC by broth microdilution, E. coli; conditions: Escherichia coli, read-out: E. coli ATCC 10536 MIC
Outline: as §1

[1] = ATCC 10536 / ATCC 10596, No Zinc
[2] = ATCC 10536 / ATCC 10596, Zinc (50 μM)

Row | Structure (SMILES) | MIC (S. uberis ATCC 19436; ATCC19436, No Zinc) [mg/L] | MIC (S. uberis ATCC 19436; ATCC19436, Zinc (50 μM)) [mg/L] | MIC (S. aureus ATCC 6538; ATCC6538, No Zinc) [mg/L] | MIC (S. aureus ATCC 6538; ATCC6538, Zinc (50 μM)) [mg/L] | MIC (E. coli ATCC 10596; [1]) [mg/L] | MIC (E. coli ATCC 10596; [2]) [mg/L]
1 | O=S(=O)(Nc1cccc2ccc(/C=N/OCc3ccccc3)nc12)c1ccc(C(F)(F)F)cc1 [ZDR137, (E)-N-(2-(((Benzyloxy)imino)methyl)quinolin-8-yl)-4-(trifluoromethyl)benzenesulfonamide] | > 256 | 0.125 (≈ 0.257 µM) | > 256 | > 256 | > 256 | > 256
2 | O=S(=O)(Nc1cccc2ccc(/C=N/NCc3ccccc3)nc12)c1ccc(C(F)(F)F)cc1 [ZDR138, (E)-N-(2-((2-Benzylhydrazineylidene)methyl)quinolin-8-yl)-4-(trifluoromethyl)benzenesulfonamide] | > 256 | 0.5 (≈ 1.03 µM) | 128 (≈ 264 µM) | 128 (≈ 264 µM) | > 256 | > 256
3 | N/C(=N\[N+](=O)[O-])NCCNCc1ccc2cccc(NS(=O)(=O)c3ccc(C(F)(F)F)cc3)c2n1 [ZDR145, (E)-N-(2-(((2-(2-Nitroguanidino)ethyl)amino)methyl)quinolin-8-yl)-4-(trifluoromethyl)benzenesulfonamide] | > 256 | > 256 | 64 (≈ 125 µM) | 128 (≈ 250 µM) | 128 (≈ 250 µM) | 256 (≈ 501 µM)
4 | CN/N=C/c1ccc2cccc(NS(=O)(=O)c3ccc(C(F)(F)F)cc3)c2n1 [ZDR153, (E)-N-(2-((2-Methylhydrazineylidene)methyl)quinolin-8-yl)-4-(trifluoromethyl)benzenesulfonamide] | > 256 | 0.5 (≈ 1.22 µM) | 64 (≈ 157 µM) | 64 (≈ 157 µM) | > 256 | > 256
5 | CN(C)Cc1ccc2cccc(NS(=O)(=O)c3ccc(S(N)(=O)=O)cc3)c2n1 [ZDR154, N-(2-((Dimethylamino)methyl)quinolin-8-yl)benzene-1,4-disulfonamide] | > 256 | 16 (≈ 38 µM) | > 256 | > 256 | > 256 | > 256
6 | CN(C)Cc1ccc2cccc(NS(=O)(=O)c3cccc(S(N)(=O)=O)c3)c2n1 [ZDR155, N-(2-((Dimethylamino)methyl)quinolin-8-yl)benzene-1,3-disulfonamide] | > 256 | > 256 | > 256 | > 256 | > 256 | > 256
7 | CN(C)Cc1ccc2cccc(NS(=O)(=O)c3cccc(O)c3)c2n1 [ZDR163, N-(2-((Dimethylamino)methyl)quinolin-8-yl)-3-hydroxybenzenesulfonamide] | > 256 | 8 (≈ 22.4 µM) | > 256 | > 256 | > 256 | > 256
8 | CN(C)Cc1ccc2cccc(NS(=O)(=O)c3ccc(O)cc3)c2n1 [ZDR164, N-(2-((Dimethylamino)methyl)quinolin-8-yl)-4-hydroxybenzenesulfonamide] | > 256 | > 256 | > 256 | > 256 | > 256 | > 256
9 | O=S(=O)(Nc1cccc2ccc(CO)nc12)c1ccc(C(F)(F)F)cc1 [ZDR176, N-(2-(Hydroxymethyl)quinolin-8-yl)-4-(trifluoromethyl)benzenesulfonamide] | > 256 | 0.5 (≈ 1.31 µM) | 4 (≈ 10.5 µM) | 4 (≈ 10.5 µM) | > 256 | > 256
10 | CS(=O)(=O)NCCNCc1ccc2cccc(NS(=O)(=O)c3ccc(C(F)(F)F)cc3)c2n1 [ZDR180, N-(2-(((2-(Methylsulfonamido)ethyl)amino)methyl)quinolin-8-yl)-4-(trifluoromethyl)benzenesulfonamide] | > 256 | 0.5 (≈ 0.995 µM) | 64 (≈ 127 µM) | 256 (≈ 509 µM) | 128 (≈ 255 µM) | > 256
11 | O=S(=O)(NCCNCc1ccc2cccc(NS(=O)(=O)c3ccc(C(F)(F)F)cc3)c2n1)c1ccccc1 [ZDR181, N-(2-(((2-(Phenylsulfonamido)ethyl)amino)methyl)quinolin-8-yl)-4-(trifluoromethyl)benzenesulfonamide] | > 256 | 0.5 (≈ 0.886 µM) | 64 (≈ 113 µM) | > 256 | 64 (≈ 113 µM) | > 256
12 | CC(=O)NCc1ccc2cccc(NS(=O)(=O)c3ccc(C(F)(F)F)cc3)c2n1 [ZDR185, N-((8-((4-(Trifluoromethyl)phenyl)sulfonamido)quinolin-2-yl)methyl)acetamide] | > 256 | 0.125 (≈ 0.295 µM) | 256 (≈ 605 µM) | 32 (≈ 75.6 µM) | > 256 | > 256
13 | CC(C)(C)OC(=O)N=C(NCc1ccc2cccc(NS(=O)(=O)c3ccc(C(F)(F)F)cc3)c2n1)NC(=O)OC(C)(C)C [ZDR186, N-(2-(N,N′-Bis-Boc-Guanidinomethyl)quinolin-8-yl)-4-(trifluoromethyl)benzenesulfonamide] | > 256 | 0.25 (≈ 0.401 µM) | > 256 | > 256 | > 256 | > 256
14 | N/C(=N\[N+](=O)[O-])NCc1ccc2cccc(NS(=O)(=O)c3ccc(C(F)(F)F)cc3)c2n1 [ZDR188, (E)-N-(2-((2-Nitroguanidino)methyl)quinolin-8-yl)-4-(trifluoromethyl)benzenesulfonamide] | > 256 | 0.5 (≈ 1.07 µM) | > 256 | > 256 | > 256 | > 256
15 | CN(C)Cc1ccc2cccc(NS(=O)(=O)N3CCOCC3)c2n1 [ZDR192, N-(2-((Dimethylamino)methyl)quinolin-8-yl)morpholine-4-sulfonamide] | > 256 | 1 (≈ 2.85 µM) | > 256 | > 256 | > 256 | > 256

Next, values leading:

Row | MIC (S. uberis ATCC 19436; ATCC19436, No Zinc) [mg/L] | MIC (S. uberis ATCC 19436; ATCC19436, Zinc (50 μM)) [mg/L] | MIC (S. aureus ATCC 6538; ATCC6538, No Zinc) [mg/L] | MIC (S. aureus ATCC 6538; ATCC6538, Zinc (50 μM)) [mg/L] | MIC (E. coli ATCC 10596; [1]) [mg/L] | MIC (E. coli ATCC 10596; [2]) [mg/L] | Structure (SMILES)
16 | 64 (≈ 146 µM) | 0.25 (≈ 0.569 µM) | 64 (≈ 146 µM) | 256 (≈ 583 µM) | > 256 | 256 (≈ 583 µM) | COCCNCc1ccc2cccc(NS(=O)(=O)c3ccc(C(F)(F)F)cc3)c2n1 [ZDR133, N-(2-(((2-Methoxyethyl)amino)methyl)quinolin-8-yl)-4-(trifluoromethyl)benzenesulfonamide]
17 | 128 (≈ 293 µM) | 0.25 (≈ 0.571 µM) | 32 (≈ 73.1 µM) | 64 (≈ 146 µM) | > 256 | > 256 | CC(C)(C)NCc1ccc2cccc(NS(=O)(=O)c3ccc(C(F)(F)F)cc3)c2n1 [ZDR135, N-(2-((tert-Butylamino)methyl)quinolin-8-yl)-4-(trifluoromethyl)benzenesulfonamide]
18 | > 256 | 8 (≈ 17.2 µM) | > 256 | > 256 | > 256 | > 256 | CC(C)N(Cc1ccc2cccc(NS(=O)(=O)c3ccc(C(F)(F)F)cc3)c2n1)C(C)C [ZDR136, N-(2-((Diisopropylamino)methyl)quinolin-8-yl)-4-(trifluoromethyl)benzenesulfonamide]
19 | 64 (≈ 96 µM) | 0.125 (≈ 0.187 µM) | 256 (≈ 384 µM) | 256 (≈ 384 µM) | > 256 | > 256 | CC(C)(C)OC(=O)N=C(NCCNCc1ccc2cccc(NS(=O)(=O)c3ccc(C(F)(F)F)cc3)c2n1)NC(=O)OC(C)(C)C [ZDR139, N-(2-(((N,N′-Bis-Boc-2-Guanidinoethyl)amino)methyl)quinolin-8-yl)-4-(trifluoromethyl)benzenesulfonamide]
20 | 64 (≈ 137 µM) | 1 (≈ 2.14 µM) | 64 (≈ 137 µM) | 128 (≈ 274 µM) | 128 (≈ 274 µM) | 256 (≈ 549 µM) | CC(=O)NCCNCc1ccc2cccc(NS(=O)(=O)c3ccc(C(F)(F)F)cc3)c2n1 [ZDR148, N-(2-(((8-((4-(Trifluoromethyl)phenyl)sulfonamido)quinolin-2-yl)methyl)amino)ethyl)acetamide]
21 | 256 (≈ 718 µM) | > 256 | > 256 | > 256 | > 256 | > 256 | CN(C)Cc1ccc2cccc(NS(=O)(=O)c3ccc(N)cc3)c2n1 [ZDR160, 4-Amino-N-(2-((dimethylamino)methyl)quinolin-8-yl)benzenesulfonamide]
22 | 256 (≈ 718 µM) | 16 (≈ 44.9 µM) | > 256 | > 256 | > 256 | > 256 | CN(C)Cc1ccc2cccc(NS(=O)(=O)c3cccc(N)c3)c2n1 [ZDR162, 3-Amino-N-(2-((dimethylamino)methyl)quinolin-8-yl)benzenesulfonamide]
23 | 32 (≈ 83.9 µM) | 0.5 (≈ 1.31 µM) | 8 (≈ 21 µM) | 4 (≈ 10.5 µM) | 64 (≈ 168 µM) | 128 (≈ 336 µM) | NCc1ccc2cccc(NS(=O)(=O)c3ccc(C(F)(F)F)cc3)c2n1 [ZDR184, N-(2-(Aminomethyl)quinolin-8-yl)-4-(trifluoromethyl)benzenesulfonamide]
24 | 256 (≈ 681 µM) | 1 (≈ 2.66 µM) | > 256 | > 256 | > 256 | > 256 | CN(C)Cc1ccc2cccc(NS(=O)(=O)c3ccccc3Cl)c2n1 [ZDR190, 2-Chloro-N-(2-((dimethylamino)methyl)quinolin-8-yl)benzenesulfonamide]
25 | 256 (≈ 602 µM) | 0.125 (≈ 0.294 µM) | > 256 | > 256 | > 256 | > 256 | CN(C)Cc1ccc2cccc(NS(=O)(=O)c3ccccc3OC(F)(F)F)c2n1 [ZDR191, N-(2-((Dimethylamino)methyl)quinolin-8-yl)-2-(trifluoromethoxy)benzenesulfonamide]

Reference: patent US11691949B2, “Quinoline sulfonamide compounds and their use as antibacterial agents” (OTAGO INNOVATION LIMITED, priority 2017, dated 2023)
